Measurements as given in patent publication US20240238423A9, “TETRAHYDROISOQUINOLINE HETEROBIFUNCTIONAL BCL-XL DEGRADERS” (Treeline Biosciences, Inc., priority 2022, published 2024).
Read-outs that look alike come from different tables or passages of the source.

Biological target: T1, Human BCL-XL protein (N-terminal HiBiT tagged BCL-XL in HT1080 cells) (Homo sapiens, UniProt Q07817)
T1 construct: expressed in transfected cells; host or cells: HT-1080 (ATCC CCL-121), stably transduced with lentivirus pLV-UBC-N-HiBiT-BCL-XL-PGK-puro and selected with puromycin
Assay: HiBiT based degradation assay
Format: cell-based
Details: HT1080 cells expressing HiBiT-BCL-XL; for Ymin (24 h) / Ymin (6 h): BCL-XL degradation normalized with DMSO control; for DC50: BCL-XL degradation
Outline: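 HT1080 cells stably transduced by lentivirus with N-terminally HiBiT-tagged human BCL-XL and kept under 1 μg/mL puromycin selection were seeded at three thousand cells per well in 40 μL RPMI 1640 into 384-well plates pre-spotted with compounds across a concentration range. Luminescence was read on a PHERAstar FSX, normalized to DMSO, and fitted with a four-parameter logistic model.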

T1 sequence (Q07817 whole entry): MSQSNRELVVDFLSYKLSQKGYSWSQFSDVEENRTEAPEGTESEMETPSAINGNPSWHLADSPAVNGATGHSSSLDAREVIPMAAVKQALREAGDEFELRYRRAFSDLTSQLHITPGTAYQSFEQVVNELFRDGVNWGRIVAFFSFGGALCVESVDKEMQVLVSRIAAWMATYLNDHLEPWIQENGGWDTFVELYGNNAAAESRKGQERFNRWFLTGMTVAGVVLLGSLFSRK

## Cc1c(OCCC2CCN(CC3CCN(c4ccc5c(C6CCC(=O)NC6=O)nn(C)c5c4)CC3)CC2)cccc1-c1ccc(N2CCc3cccc(C(=O)Nc4nc5ccccc5s4)c3C2)nc1C(=O)O (stereo not drawn) [Compound 258, 6-[8-(1,3-benzothiazol-2-ylcarbamoyl)-3,4-dihydro-1H-isoquinolin-2-yl]-3-[3-[2-[1-[[1-[3-(2,6-dioxo-3-piperidyl)-1-methyl-indazol-6-yl]-4-piperidyl]methyl]-4-piperidyl]ethoxy]-2-methyl-phenyl]pyridine-2-carboxylic acid]
24 h
  Ymin (24 h): A (Ymin < 50%)
24 h, read-out: EC50 (24 h)
  DC50: < 100 nM

## Cc1c(OCCCN2CCN(CC(=O)Nc3cccc4c(C5CCC(=O)NC5=O)nn(C)c34)C[C@@H]2C(F)(F)F)cccc1-c1ccc(N2CCc3cccc(C(=O)Nc4nc5ccccc5s4)c3C2)nc1C(=O)O (stereo partly drawn) [Compound 246a, 6-(8-(benzo[d]thiazol-2-ylcarbamoyl)-3,4-dihydroisoquinolin-2(1H)-yl)-3-(3-(3-((2R)-4-(2-((3-(2,6-dioxopiperidin-3-yl)-1-methyl-1H-indazol-7-yl)amino)-2-oxoethyl)-2-(trifluoromethyl)piperazin-1-yl)propoxy)-2-methylphenyl)picolinic acid]
24 h
  Ymin (24 h): B (50% ≤ Ymin < 70%)
24 h, read-out: EC50 (24 h)
  DC50: < 100 nM

## Cc1c(O[C@H]2CC[C@H](CC[C@H](C)CN3CCN(c4ccc5c(C6CCC(=O)NC6=O)nn(C)c5c4)CC3)CC2)cccc1-c1ccc(N2CCc3cccc(C(=O)Nc4nc5ccccc5s4)c3C2)nc1C(=O)O (single isomer, unassigned) [Compound 308b]
24 h
  Ymin (24 h): A (Ymin < 50%)
24 h, read-out: EC50 (24 h)
  DC50: < 100 nM

## Cc1c(OCCCC2CCN(CC(=O)Nc3cc4c(cc3F)c(C3CCC(=O)NC3=O)nn4C)CC2)cccc1-c1ccc(N2CCc3cccc(C(=O)Nc4nc5ccccc5s4)c3C2)nc1C(=O)O (stereo not drawn) [Compound 295, 6-[8-(1,3-benzothiazol-2-ylcarbamoyl)-3,4-dihydro-1H-isoquinolin-2-yl]-3-[3-[3-[1-[2-[[3-(2,6-dioxo-3-piperidyl)-5-fluoro-1-methyl-indazol-6-yl]amino]-2-oxo-ethyl]-4-piperidyl]propoxy]-2-methyl-phenyl]pyridine-2-carboxylic acid]
24 h
  Ymin (24 h): B (50% ≤ Ymin < 70%)
24 h, read-out: EC50 (24 h)
  DC50: 100 to 1000 nM

## Cc1c(-c2ccc(N3CCc4cccc(C(=O)Nc5nc6ccccc6s5)c4C3)nc2C(=O)NCCCCCC(=O)Nc2ccc3c(C4CCC(=O)NC4=O)nn(C)c3c2)cnn1CC12CC3CC(CC(C3)C1)C2 (stereo not drawn) [Compound 111, 2-(5-(1-(((3r,5r,7r)-adamantan-1-yl)methyl)-5-methyl-1H-pyrazol-4-yl)-6-((6-((3-(2,6-dioxopiperidin-3-yl)-1-methyl-1H-indazol-6-yl)amino)-6-oxohexyl)carbamoyl)pyridin-2-yl)-N-(benzo[d]thiazol-2-yl)-1,2,3,4-tetrahydroisoquinoline-8-carboxamide]
6 h
  Ymin (6 h): B (50% ≤ Ymin < 70%)
6 h, read-out: EC50 (6 h)
  DC50: < 100 nM

## Cc1c(OCCCC2CCN(CC3CN(c4ccc5c(C6CCC(=O)NC6=O)nn(C)c5c4)C3)CC2)cccc1-c1ccc(N2CCc3cccc(C(=O)Nc4nc5ccccc5s4)c3C2)nc1C(=O)O (stereo not drawn) [Compound 312, 6-(8-(benzo[d]thiazol-2-ylcarbamoyl)-3,4-dihydroisoquinolin-2(1H)-yl)-3-(3-(3-(1-((1-(3-(2,6-dioxopiperidin-3-yl)-1-methyl-1H-indazol-6-yl)azetidin-3-yl)methyl)piperidin-4-yl)propoxy)-2-methylphenyl)picolinic acid]
24 h
  Ymin (24 h): A (Ymin < 50%)
24 h, read-out: EC50 (24 h)
  DC50: < 100 nM

## Cc1c(CCCCN2CCN(CC(=O)Nc3ccc4c(C5CCC(=O)NC5=O)nn(C)c4c3)CC2)cccc1-c1ccc(N2CCc3cccc(C(=O)Nc4nc5ccccc5s4)c3C2)nc1C(=O)O (stereo not drawn) [Compound 130, 6-[8-(1,3-Benzothiazol-2-ylcarbamoyl)-3,4-dihydro-1H-isoquinolin-2-yl]-3-[3-[4-[4-[2-[[3-(2,6-dioxo-3-piperidyl)-1-methyl-indazol-6-yl]amino]-2-oxo-ethyl]piperazin-1-yl]butyl]-2-methyl-phenyl]pyridine-2-carboxylic acid]
6 h
  Ymin (6 h): A (Ymin < 50%)
24 h
  Ymin (24 h): A (Ymin < 50%)
6 h, read-out: EC50 (6 h)
  DC50: < 100 nM
24 h, read-out: EC50 (24 h)
  DC50: < 100 nM

## Cc1c(OCCCN2CCN(CC(=O)Nc3ccc4c(C5CCC(=O)NC5=O)nn(C)c4c3)[C@H](C(F)(F)F)C2)cccc1-c1ccc(N2CCc3cccc(C(=O)Nc4nc5ccccc5s4)c3C2)nc1C(=O)O (stereo partly drawn) [Compound 187a, 6-(8-(benzo[d]thiazol-2-ylcarbamoyl)-3,4-dihydroisoquinolin-2(1H)-yl)-3-(3-(3-((3S)-4-(2-((3-(2,6-dioxopiperidin-3-yl)-1-methyl-1H-indazol-6-yl)amino)-2-oxoethyl)-3-(trifluoromethyl)piperazin-1-yl)propoxy)-2-methylphenyl)picolinic acid]
6 h
  Ymin (6 h): B (50% ≤ Ymin < 70%)
24 h
  Ymin (24 h): B (50% ≤ Ymin < 70%)
6 h, read-out: EC50 (6 h)
  DC50: 100 to 1000 nM
24 h, read-out: EC50 (24 h)
  DC50: < 100 nM

## Cc1c(OCCCC2CCN(C3CCN(c4ccc5c(C6CCC(=O)NC6=O)nn(C)c5c4)CC3)CC2)cccc1-c1ccc(N2CCc3cccc(C(=O)Nc4nc5ccccc5s4)c3C2)nc1C(=O)O (stereo not drawn) [Compound 306, 6-(8-(benzo[d]thiazol-2-ylcarbamoyl)-3,4-dihydroisoquinolin-2(1H)-yl)-3-(3-(3-(1′-(3-(2,6-dioxopiperidin-3-yl)-1-methyl-1H-indazol-6-yl)-[1,4′-bipiperidin]-4-yl)propoxy)-2-methylphenyl)picolinic acid]
24 h
  Ymin (24 h): A (Ymin < 50%)
24 h, read-out: EC50 (24 h)
  DC50: < 100 nM

## Cc1c(O[C@H]2CC[C@H](CC[C@@H](C)CN3CCN(c4ccc5c(C6CCC(=O)NC6=O)nn(C)c5c4)CC3)CC2)cccc1-c1ccc(N2CCc3cccc(C(=O)Nc4nc5ccccc5s4)c3C2)nc1C(=O)O (single isomer, unassigned) [Compound 308a]
24 h
  Ymin (24 h): A (Ymin < 50%)
24 h, read-out: EC50 (24 h)
  DC50: < 100 nM

## Cc1c(Oc2ccc(CCCN3CCN(c4cccc5c(C6CCC(=O)NC6=O)nn(C)c45)CC3)cc2)cccc1-c1ccc(N2CCc3cccc(C(=O)Nc4nc5ccccc5s4)c3C2)nc1C(=O)O (stereo not drawn) [Compound 150, 6-[8-(1,3-benzothiazol-2-ylcarbamoyl)-3,4-dihydro-1H-isoquinolin-2-yl]-3-[3-[4-[3-[4-[3-(2,6-dioxo-3-piperidyl)-1-methyl-indazol-7-yl]piperazin-1-yl]propyl]phenoxy]-2-methyl-phenyl]pyridine-2-carboxylic acid]
6 h
  Ymin (6 h): B (50% ≤ Ymin < 70%)
24 h
  Ymin (24 h): B (50% ≤ Ymin < 70%)
6 h, read-out: EC50 (6 h)
  DC50: 100 to 1000 nM
24 h, read-out: EC50 (24 h)
  DC50: < 100 nM

## Cc1c(O[C@H]2CC[C@H](CC[C@H](C)N3CCN(c4ccc5c(C6CCC(=O)NC6=O)nn(C)c5c4)CC3)CC2)cccc1-c1ccc(N2CCc3cccc(C(=O)Nc4nc5ccccc5s4)c3C2)nc1C(=O)O (single isomer, unassigned) [Compound 281a]
24 h
  Ymin (24 h): A (Ymin < 50%)
24 h, read-out: EC50 (24 h)
  DC50: < 100 nM

## Cc1c(O[C@H]2CC[C@H](CCCN3CCC(c4cccc5c(C6CCC(=O)NC6=O)nn(C)c45)CC3)CC2)cccc1-c1ccc(N2CCc3cccc(C(=O)Nc4nc5ccccc5s4)c3C2)nc1C(=O)O (stereo partly drawn) [Compound 270a, 6-(8-(benzo[d]thiazol-2-ylcarbamoyl)-3,4-dihydroisoquinolin-2(1H)-yl)-3-(3-(((1s,4r)-4-(3-(4-(3-(2,6-dioxopiperidin-3-yl)-1-methyl-1H-indazol-7-yl)piperidin-1-yl)propyl)cyclohexyl)oxy)-2-methylphenyl)picolinic acid]
24 h
  Ymin (24 h): A (Ymin < 50%)
24 h, read-out: EC50 (24 h)
  DC50: < 100 nM

## Cc1c(O[C@H]2CC[C@H](CCCN3CC[C@H](c4ccc5c(C6CCC(=O)NC6=O)nn(C)c5c4)C3)CC2)cccc1-c1ccc(N2CCc3cccc(C(=O)Nc4nc5ccccc5s4)c3C2)nc1C(=O)O (single isomer, unassigned) [Compound 331a]
24 h
  Ymin (24 h): A (Ymin < 50%)
24 h, read-out: EC50 (24 h)
  DC50: < 100 nM

## Cc1c(OCCC[C@H]2CCN(CC(=O)Nc3ccc4c(C5CCC(=O)NC5=O)nn(C)c4c3)CC2(F)F)cccc1-c1ccc(N2CCc3cccc(C(=O)Nc4nc5ccccc5s4)c3C2)nc1C(=O)O (stereo partly drawn) [Compound 193b]
24 h
  Ymin (24 h): B (50% ≤ Ymin < 70%)
24 h, read-out: EC50 (24 h)
  DC50: 100 to 1000 nM

## Cc1c(O[C@H]2CC[C@H](CCCCN3CCN(c4cccc5c(C6CCC(=O)NC6=O)nn(C)c45)C[C@H]3C)CC2)cccc1-c1ccc(N2CCc3cccc(C(=O)Nc4nc5ccccc5s4)c3C2)nc1C(=O)O (stereo partly drawn) [Compound 345a, 6-(8-(benzo[d]thiazol-2-ylcarbamoyl)-3,4-dihydroisoquinolin-2(1H)-yl)-3-(3-(((1s,4r)-4-(4-((2R)-4-(3-(2,6-dioxopiperidin-3-yl)-1-methyl-1H-indazol-7-yl)-2-methylpiperazin-1-yl)butyl)cyclohexyl)oxy)-2-methylphenyl)picolinic acid]
24 h
  Ymin (24 h): A (Ymin < 50%)
24 h, read-out: EC50 (24 h)
  DC50: < 100 nM

## Cc1c(OCCOC2CCN(CC(=O)Nc3ccc4c(C5CCC(=O)NC5=O)nn(C)c4c3)CC2)cccc1-c1ccc(N2CCc3cccc(C(=O)Nc4nc5ccccc5s4)c3C2)nc1C(=O)O (stereo not drawn) [Compound 238, 6-(8-(benzo[d]thiazol-2-ylcarbamoyl)-3,4-dihydroisoquinolin-2(1H)-yl)-3-(3-(2-((1-(2-((3-(2,6-dioxopiperidin-3-yl)-1-methyl-1H-indazol-6-yl)amino)-2-oxoethyl)piperidin-4-yl)oxy)ethoxy)-2-methylphenyl)picolinic acid]
6 h
  Ymin (6 h): B (50% ≤ Ymin < 70%)
24 h
  Ymin (24 h): B (50% ≤ Ymin < 70%)
6 h, read-out: EC50 (6 h)
  DC50: < 100 nM
24 h, read-out: EC50 (24 h)
  DC50: < 100 nM
